According to patent USRE48335E1, “Polymyxin derivatives as antimicrobial compounds” (priority 2014, dated 2020):
Converted amounts (≈) assume the structure as drawn. Positions of bridges follow the written chain, without caps; N, C: chain ends. Non-standard residues stand in square brackets, D forms with d. Residues, ends and D or L forms follow the SMILES beside them. *: point of attachment. Phenylacetyl(3-Cl) = O=C(Cc1cccc(Cl)c1)*; Benzoyl(2,3-Cl2) = O=C(c1cccc(Cl)c1Cl)*; Benzoyl(3-Cl) = O=C(c1cccc(Cl)c1)*; X23 = O=C(c1c(Cl)cc(Cl)cc1Cl)*; X4 = O=C(c1ccc(Cl)c(Cl)c1)*; Dab = NCC[C@H](N)C(=O)O; Abu = CC[C@H](N)C(=O)O; Dap = NC[C@H](N)C(=O)O; PhAc = O=C(Cc1ccccc1)*

Experiments:
Enterobacter cloacae = settings: broth microdilution in CAMHB; for Minimum inhibitory concentration, Ec FADDI-EC001: Enterobacter cloacae FADDI-EC001; for Minimum inhibitory concentration, Ec FADDI-EC003: Enterobacter cloacae FADDI-EC003; for Minimum inhibitory concentration, Ec FADDI-EC006: Enterobacter cloacae FADDI-EC006
Method in brief: (§1)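 Lipopeptide TFA salts are serially diluted in cation-adjusted Mueller-Hinton broth and inoculated per the CLSI M100-S18 broth microdilution method. The MIC is then recorded, with polymyxin B sulphate included as a control.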

Klebsiella pneumoniae = settings: K. pneumoniae FADDI-KP032
Method in brief: as §1

Acinetobacter baumannii = settings: for MIC: A. baumannii ATCC 19606; for Minimum inhibitory concentration, Ab A ATCC 17978: Acinetobacter baumannii ATCC 17978; for Minimum inhibitory concentration, Ab A ATCC 17978 / Minimum inhibitory concentration, Ab ATCC 19606 / Minimum inhibitory concentration, Ab FADDI-AB034: broth microdilution in CAMHB; for Minimum inhibitory concentration, Ab ATCC 19606: Acinetobacter baumannii ATCC 19606; for Minimum inhibitory concentration, Ab FADDI-AB034: Acinetobacter baumannii FADDI-AB034
Method in brief: as §1

Pseudomonas aeruginosa = settings: for MIC: P. aeruginosa ATCC 27853; for Minimum inhibitory concentration, Pa ATCC 27853: Pseudomonas aeruginosa ATCC 27853; for Minimum inhibitory concentration, Pa ATCC 27853 / Minimum inhibitory concentration, Pa FADDI-PA022 / Minimum inhibitory concentration, Pa FADDI-PA025: broth microdilution in CAMHB; for Minimum inhibitory concentration, Pa FADDI-PA022: Pseudomonas aeruginosa FADDI-PA022; for Minimum inhibitory concentration, Pa FADDI-PA025: Pseudomonas aeruginosa FADDI-PA025
Method in brief: as §1

[1] = Nephrotoxicity in a mouse model (kidney histology score); assay type: in vivo; set-up: key to Max Overall Kidney Histology Score: product of % score and grade score (grade 1-3); 30 to <45 = moderate; settings: mice, subcutaneous 12 mg base/kg, 6 doses in one day every 2 h; for Max Overall Kidney Histology Score: kidney ~20 h after last dose, product of percentage score and grade score; for Max Kidney Histology Score: semiquantitative score (SQS) 0 to +5
Method: PMB sulphate (Batch 20120204) and colistin sulphate (Batch 20120719) were supplied by Betapharma (Shanghai Co., Ltd, China). […] At ˜20 h after the last dose, mice were euthanised by inhalation of an overdose of isoflurane. […] The formalin-fixed kidneys were then sent to the Australian Phenomics Network-Histopathology and Organ Pathology (The University of Melbourne, Parkville, VIC, Australia) for histological examination. The samples were examined by a pathologist who was blind to the treatment groups. Lesions were rated as follows: mild acute tubular damage with tubular dilation, prominent nuclei and a few pale […] tubular casts (Grade 1); severe acute tubular damage with necrosis of tubular epithelial cells and numerous tubular casts (Grade 2); acute cortical necrosis/infarction of tubules and glomeruli with or without papillary necrosis (Grade 3). […] The overall kidney histology score was calculated as the product of percentage score and grade score. […] These scores were assigned as follows: […] SQS+3=moderate damage (overall score, 30 to <45); […]

A. baumannii ATCC 19606 = experiment: In vivo efficacy in mouse blood infection model (neutropenic Swiss mice); settings: compound, free base 4 mg/kg intravenously 2 h after inoculation, blood at 4 h
Method in brief: (§2)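 Activity expressed as Δlog10 CFU/mL blood, treated minus saline control, 4 h after a single 4 mg/kg (free base) i.v. dose given 2 h post-infection. Bloodstream infection from i.v. early log-phase inoculum in Swiss mice made neutropenic by i.p. cyclophosphamide on days −4 (150 mg/kg) and −1 (100 mg/kg).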

P. aeruginosa ATCC 27853 = experiment: as above; settings: compound, free base 4 mg/kg intravenously 2 h after inoculation, blood at 4 h
Method in brief: as §2

[2] = tested on: K. pneumoniae FADDI-KP032; experiment: as above; settings: compound, free base 4 mg/kg intravenously 2 h after inoculation, blood at 4 h
Method in brief: as §2

| Compound | Minimum inhibitory concentration, Ec FADDI-EC001 (Enterobacter cloacae) [µg/mL] | Minimum inhibitory concentration, Ec FADDI-EC003 (Enterobacter cloacae) [µg/mL] | Minimum inhibitory concentration, Ec FADDI-EC006 (Enterobacter cloacae) [µg/mL] | MIC (Klebsiella pneumoniae) [µg/mL] | MIC (Acinetobacter baumannii) [µg/mL] | Minimum inhibitory concentration, Ab A ATCC 17978 (Acinetobacter baumannii) [µg/mL] | Minimum inhibitory concentration, Ab ATCC 19606 (Acinetobacter baumannii) [µg/mL] | Minimum inhibitory concentration, Ab FADDI-AB034 (Acinetobacter baumannii) [µg/mL] | MIC (Pseudomonas aeruginosa) [µg/mL] | Minimum inhibitory concentration, Pa ATCC 27853 (Pseudomonas aeruginosa) [µg/mL] | Minimum inhibitory concentration, Pa FADDI-PA022 (Pseudomonas aeruginosa) [µg/mL] | Minimum inhibitory concentration, Pa FADDI-PA025 (Pseudomonas aeruginosa) [µg/mL] | Max Overall Kidney Histology Score [1] | Max Kidney Histology Score [1] | Δ log (Treated-Control at 4 h) (A. baumannii ATCC 19606) [log10 CFU/mL] | Δ log (Treated-Control at 4 h) (P. aeruginosa ATCC 27853) [log10 CFU/mL] | Δ log (Treated-Control at 4 h) [2] [log10 CFU/mL] | nephrotoxicity in the in vivo nephrotoxicity model ([1]; kidney histology ~20 h after last dose) |
| --- | --- | --- | --- | --- | --- | --- | --- | --- | --- | --- | --- | --- | --- | --- | --- | --- | --- | --- |
| CC[C@@H]1NC(=O)[C@@H](CC(C)C)NC(=O)[C@H](CCN)NC(=O)[C@@H](NC(=O)[C@H](CN)NC(=O)[C@@H](NC(=O)[C@H](CCN)NC(=O)c2ccc(Cl)c(Cl)c2)[C@@H](C)O)CCNC(=O)[C@H]([C@@H](C)O)NC(=O)[C@H](CCN)NC(=O)[C@H](CCN)NC1=O [Compound 71] (X4-[Dab]T[Dap][Dab][Dab][dL][Abu][Dab][Dab]T; lactam 4-C) | 1 (≈ 0.862 µM) | 0.25 (≈ 0.215 µM) | 1 (≈ 0.862 µM) | 0.5 (≈ 0.431 µM) | 0.5 (≈ 0.431 µM) | 0.25 (≈ 0.215 µM) | 0.5 (≈ 0.431 µM) | 0.25 (≈ 0.215 µM) | 0.5 (≈ 0.431 µM) | 0.5 (≈ 0.431 µM) | 4 (≈ 3.45 µM) | 1 (≈ 0.862 µM) | 0.0 | 0 (SQS 0=no significant change (overall score, <1)) | −1.82 | −4.04 | −2.98 | – |
| CC[C@@H]1NC(=O)[C@@H](CC(C)C)NC(=O)[C@H](CCN)NC(=O)[C@@H](NC(=O)[C@H](CN)NC(=O)[C@@H](NC(=O)[C@H](CCN)NC(=O)Cc2ccccc2)[C@@H](C)O)CCNC(=O)[C@H]([C@@H](C)O)NC(=O)[C@H](CCN)NC(=O)[C@H](CCN)NC1=O [Compound 78] (PhAc-[Dab]T[Dap][Dab][Dab][dL][Abu][Dab][Dab]T; lactam 4-C) | 0.25 (≈ 0.226 µM) | 0.25 (≈ 0.226 µM) | 0.5 (≈ 0.452 µM) | – | – | 2 (≈ 1.81 µM) | 4 (≈ 3.62 µM) | 2 (≈ 1.81 µM) | – | 1 (≈ 0.905 µM) | 0.5 (≈ 0.452 µM) | 4 (≈ 3.62 µM) | 0.0 | 0 (SQS 0=no significant change (overall score, <1)) | – | – | – | – |
| CC[C@@H]1NC(=O)[C@@H](CC(C)C)NC(=O)[C@H](CCN)NC(=O)[C@@H](NC(=O)[C@H](CN)NC(=O)[C@@H](NC(=O)[C@H](CCN)NC(=O)Cc2cccc(Cl)c2)[C@@H](C)O)CCNC(=O)[C@H]([C@@H](C)O)NC(=O)[C@H](CCN)NC(=O)[C@H](CCN)NC1=O [Compound 79] ({Phenylacetyl(3-Cl)}-[Dab]T[Dap][Dab][Dab][dL][Abu][Dab][Dab]T; lactam 4-C) | 0.25 (≈ 0.219 µM) | <0.125 | 2 (≈ 1.75 µM) | <0.125 | 1 (≈ 0.877 µM) | 0.5 (≈ 0.439 µM) | 1 (≈ 0.877 µM) | 1 (≈ 0.877 µM) | 0.5 (≈ 0.439 µM) | 0.5 (≈ 0.439 µM) | 1 (≈ 0.877 µM) | 1 (≈ 0.877 µM) | 5.0 | +1 (SQS+1=mild damage (overall score, 1 to <15)) | – | −2.28 | – | – |
| CC[C@@H]1NC(=O)[C@@H](CC(C)C)NC(=O)[C@H](CCN)NC(=O)[C@@H](NC(=O)[C@H](CN)NC(=O)[C@@H](NC(=O)[C@H](CCN)NC(=O)c2cccc(Cl)c2)[C@@H](C)O)CCNC(=O)[C@H]([C@@H](C)O)NC(=O)[C@H](CCN)NC(=O)[C@H](CCN)NC1=O [Compound 88] ({Benzoyl(3-Cl)}-[Dab]T[Dap][Dab][Dab][dL][Abu][Dab][Dab]T; lactam 4-C) | 1 (≈ 0.888 µM) | 0.25 (≈ 0.222 µM) | 0.5 (≈ 0.444 µM) | 0.5 (≈ 0.444 µM) | 2 (≈ 1.78 µM) | 0.5 (≈ 0.444 µM) | 2 (≈ 1.78 µM) | 0.5 (≈ 0.444 µM) | 0.5 (≈ 0.444 µM) | 0.5 (≈ 0.444 µM) | 1 (≈ 0.888 µM) | 2 (≈ 1.78 µM) | 0.0 | 0 (SQS 0=no significant change (overall score, <1)) | −2.46 | −3.33 | – | – |
| CC[C@@H]1NC(=O)[C@@H](CC(C)C)NC(=O)[C@H](CCN)NC(=O)[C@@H](NC(=O)[C@H](CN)NC(=O)[C@@H](NC(=O)[C@H](CCN)NC(=O)c2cccc(Cl)c2Cl)[C@@H](C)O)CCNC(=O)[C@H]([C@@H](C)O)NC(=O)[C@H](CCN)NC(=O)[C@H](CCN)NC1=O [Compound 90] ({Benzoyl(2,3-Cl2)}-[Dab]T[Dap][Dab][Dab][dL][Abu][Dab][Dab]T; lactam 4-C) | 0.5 (≈ 0.431 µM) | 8 (≈ 6.9 µM) | 0.25 (≈ 0.215 µM) | – | – | 1 (≈ 0.862 µM) | 2 (≈ 1.72 µM) | 8 (≈ 6.9 µM) | – | 0.5 (≈ 0.431 µM) | 2 (≈ 1.72 µM) | 2 (≈ 1.72 µM) | 0.0 | 0 (SQS 0=no significant change (overall score, <1)) | – | – | – | – |
| CC[C@@H]1NC(=O)[C@@H](CC(C)C)NC(=O)[C@H](CCN)NC(=O)[C@@H](NC(=O)[C@H](CN)NC(=O)[C@@H](NC(=O)[C@H](CCN)NC(=O)c2c(Cl)cc(Cl)cc2Cl)[C@@H](C)O)CCNC(=O)[C@H]([C@@H](C)O)NC(=O)[C@H](CCN)NC(=O)[C@H](CCN)NC1=O [Compound 95] (X23-[Dab]T[Dap][Dab][Dab][dL][Abu][Dab][Dab]T; lactam 4-C) | <0.125 | 0.25 (≈ 0.209 µM) | 1 (≈ 0.837 µM) | – | – | 0.25 (≈ 0.209 µM) | 0.25 (≈ 0.209 µM) | 0.25 (≈ 0.209 µM) | – | 2 (≈ 1.67 µM) | 4 (≈ 3.35 µM) | 2 (≈ 1.67 µM) | 0.0 | 0 (SQS 0=no significant change (overall score, <1)) | – | – | – | – |
| polymyxin B [reference compound] | 0.25 | 0.5 | 0.5 | – | – | 1 | 1 | 0.5 | – | 1 | 1 | 1 | 60.0 | +5 (SQS+5=severe damage (overall score, >60)) | – | – | – | severe nephrotoxicity |
